The source of these data is US9133125B2, “Morphan and morphinan analogues, and methods of use” (priority 2013, dated 2015).

The assay has as its system Male Sprague-Dawley rats. Kind of assay: Thermal pain assay (rodent hot plate model). It is filed as in vivo. The settings on record: rat, dose of 10 mg/kg, subcutaneous.

As to `Cl.NC(=O)c1ccc2c(c1O)[C@]13CCN(CC4CCC4)[C@H](C2)[C@]1(O)CC[C@@H](O)C3` [Compound D, (4bR,6R,8aS,9R)-11-(cyclobutylmethyl)-4,6,8a-trihydroxy-6,7,8,8a,9,10-hexahydro-5H-9,4b-(epiminoethano)phenanthrene-3-carboxamide], the “antinociceptive effect, hot plate” value is “no antinociceptive effect”. Regarding `Cl.NC(=O)c1ccc2c(c1O)[C@]13CCN(CC4CCC4)[C@H](C2)[C@]1(O)CC[C@H](O)C3` [Compound C, (4bR,6S,8aS,9R)-11-(cyclobutylmethyl)-4,6,8a-trihydroxy-6,7,8,8a,9,10-hexahydro-5H-9,4b-(epiminoethano)phenanthrene-3-carboxamide], the “antinociceptive effect, hot plate” value is “no antinociceptive effect”.
